ChEMBL document CHEMBL5537177, “Discovery of Potent Antimalarial Type II Kinase Inhibitors with Selectivity over Human Kinases” (J Med Chem, 2024)

Columns and labels:
Plasmodium falciparum [1] = assay: Resistance index, ratio of EC50 for multidrug-resistant Plasmodium falciparum Dd2 at ring stage infected in A+ erythrocytes to EC50 for drug-sensitive Plasmodium falciparum 3D7 at ring stage infected in A+ erythrocytes; assay type: organism-based; settings: human
MCF7 = assay: Cytotoxicity against human MCF7 cells assessed as reduction in cell viability incubated for 48 hrs by MTS assay; assay type: toxicity, cell-based; settings: mcf7
[2] = Selectivity index, ratio of EC50 for human HepG2 cells to EC50 for multidrug-resistant Plasmodium falciparum Dd2 at ring stage infected in A+ erythrocytes; assay type: toxicity, cell-based; settings: read-out: Ratio EC50
Plasmodium falciparum [3] = assay: Antiplasmodial activity against multidrug-resistant Plasmodium falciparum Dd2 at ring stage infected in A+ erythrocytes assessed as parasite growth reduction incubated for 72 hrs by SYBR Green I dye based analysis; assay type: functional, organism-based; settings: Dd2, Erythrocyte
Plasmodium falciparum [4] = assay: Antiplasmodial activity against drug-sensitive Plasmodium falciparum 3D7 at ring stage infected in A+ erythrocytes assessed as parasite growth reduction incubated for 72 hrs by SYBR Green I dye based analysis; assay type: functional, organism-based; settings: 3D7, Erythrocyte
HepG2 = assay: Cytotoxicity against human HepG2 cells assessed as reduction in cell viability incubated for 48 hrs by MTS assay; assay type: toxicity, cell-based; settings: hepg2
[5] = Selectivity index, ratio of EC50 for human MCF7 cells to EC50 for multidrug-resistant Plasmodium falciparum Dd2 at ring stage infected in A+ erythrocytes; assay type: toxicity, cell-based; settings: read-out: Ratio EC50
[6] = Metabolic stability in mouse liver microsomes assessed as half life; assay type: ADME, Liver cells
[7] = Metabolic stability in mouse liver microsomes assessed as intrinsic clearance; assay type: ADME, Liver cells

Row | SMILES | Ratio EC50 (Plasmodium falciparum [1]) | EC50 (MCF7) [nM] | selectivity ratio [2] | EC50 (Plasmodium falciparum [3]) [nM] | EC50 (Plasmodium falciparum [4]) [nM] | EC50 (HepG2) [nM] | selectivity ratio [5] | t1/2 [6] [min] | intrinsic clearance [7] [µL/min/mg]
1 | CCN1CCN(Cc2ccc(NC(=O)c3cc(Cl)cc(Nc4cncc(-c5cccs5)c4)c3)cc2C(F)(F)F)CC1 | 1.2 | 5530 | 12 | 296 | 253 | 3620 | 19 |  | 
2 | CCN1CCN(Cc2ccc(NC(=O)c3cc(Cl)cc(NC(=O)c4cncnc4)c3)cc2C(F)(F)F)CC1 | 1.3 | 15300 | 33 | 520 | 395 | 17300 | 29 |  | 
3 | CCN1CCN(Cc2ccc(NC(=O)c3cc(Cl)cc(C(=O)Nc4cncc(-c5cccs5)c4)c3)cc2C(F)(F)F)CC1 | 1.3 | 5360 | 39 | 109 | 82 | 4240 | 49 |  | 
4 | CCN1CCN(Cc2ccc(NC(=O)c3cc(Cl)cc(NC(=O)c4cncc(-c5cccs5)c4)c3)cc2)CC1 | 1.1 | 10300 | 108 | 81 | 76 | 8770 | 127 | 65.3 | 11
5 | O=C(Nc1ccnc(N2CCOCC2)c1)c1cc(Cl)cc(NC(=O)c2cncc(-c3cccs3)c2)c1 | 1.1 | 14700 | > 27 | 739 | 700 | > 20000 | 20 |  | 
6 | CCN1CCN(Cc2ccc(NC(=O)c3cc(Cl)cc(NC(=O)N4CCN(C)CC4)c3)cc2C(F)(F)F)CC1 | 0.6 | 18800 | 11 | 1230 | 2120 | 14000 | 15 |  | 
7 | CCN1CCN(Cc2ccc(NC(=O)c3cc(Br)cc(NC(=O)c4cncc(-c5cccs5)c4)c3)cc2C(F)(F)F)CC1 | 1.6 | 6590 | 72 | 61 | 39 | 4380 | 108 | 40.7 | 17
8 | CCN1CCN(Cc2ccc(NC(=O)c3cc(F)cc(NC(=O)c4cncc(-c5cccs5)c4)c3)cc2C(F)(F)F)CC1 | 1.2 | 10200 | 50 | 135 | 113 | 6690 | 76 | 32.4 | 21
9 | CCN1CCN(Cc2ccc(NC(=O)c3cc(NC(=O)c4cncc(-c5cccs5)c4)c(C)cc3F)cc2C(F)(F)F)CC1 | 1.1 | 6910 | 2.6 | 1580 | 1460 | 4050 | 4.4 |  | 
10 | CCN1CCN(Cc2ccc(NC(=O)c3ccc(OC)c(NC(=O)c4cncc(-c5cccs5)c4)c3)cc2C(F)(F)F)CC1 | 1.9 | 5060 | 2.1 | 1540 | 821 | 3240 | 3.3 |  | 
11 | CCN1CCN(Cc2ccc(NC(=O)c3ccnc(NC(=O)c4cncc(-c5cccs5)c4)c3)cc2C(F)(F)F)CC1 | 1.6 | 4610 | 5.2 | 579 | 356 | 3030 | 8 |  | 
12 | CCN1CCN(Cc2ccc(C(=O)Nc3cc(Cl)cc(NC(=O)c4cncc(-c5cccs5)c4)c3)cc2C(F)(F)F)CC1 | 1.4 | 7030 | 88 | 104 | 73 | 9160 | 68 |  | 
13 | CCN1CCN(Cc2ccc(NC(=O)c3cc(Cl)cc(NC(=O)c4cncc(-c5ccccc5)c4)c3)cc2C(F)(F)F)CC1 | 1.2 | 4350 | 66 | 50 | 41 | 3290 | 87 | 50.2 | 14
14 | CCN1CCN(Cc2ccc(NC(=O)c3cc(NC(=O)c4cncc(-c5cccs5)c4)ccc3F)cc2C(F)(F)F)CC1 | 2 | 10800 | 6.8 | 981 | 491 | 6710 | 11 |  | 
15 | CCN1CCN(Cc2ccc(NC(=O)c3cc(Cl)cc(NC(=O)c4cccc(-c5cccs5)c4)c3)cc2C(F)(F)F)CC1 | 1.3 | 8360 | 22 | 253 | 196 | 5460 | 33 |  | 
16 | CCN1CCN(Cc2ccc(NC(=O)c3cc(Cl)cc(NC(=O)c4cncc(-c5ccco5)c4)c3)cc2C(F)(F)F)CC1 | 0.9 | 6490 | 106 | 51 | 58 | 5410 | 127 | 58.1 | 12
17 | CCN1CCN(Cc2ccc(NC(=O)c3cc(Cl)cc(NC(=O)c4cccnc4)c3)cc2C(F)(F)F)CC1 | 1.2 | 11000 | 71 | 147 | 127 | 10400 | 75 | 15.1 | 46
18 | CCN1CCN(Cc2ccc(NC(=O)c3ccc(F)c(NC(=O)c4cncc(-c5cccs5)c4)c3)cc2C(F)(F)F)CC1 | 1.7 | 5100 | 2.4 | 1320 | 763 | 3170 | 3.9 |  | 
19 | O=C(Nc1cccc(C(F)(F)F)c1)c1cc(Cl)cc(NC(=O)c2cncc(-c3cccs3)c2)c1 | 2.1 | > 20000 | > 18 | 1110 | 541 | > 20000 | > 18 |  | 
20 | CCN1CCN(Cc2ccc(NC(=O)c3cc(Cl)cc(NC(=O)c4cncc(C#N)c4)c3)cc2C(F)(F)F)CC1 | 1 | 7580 | 58 | 191 | 186 | 11000 | 40 |  | 
21 | CCN1CCN(Cc2ccc(NC(=O)c3cc(Cl)cc(NC(=O)c4cnc(N)nc4)c3)cc2C(F)(F)F)CC1 | 1.9 | 13700 | 27 | 709 | 378 | 19200 | 19 |  | 
22 | CCN1CCN(Cc2ccc(NC(=O)c3cc(Cl)cc(NCc4cncc(-c5cccs5)c4)c3)cc2C(F)(F)F)CC1 | 1.1 | 8330 | 16 | 344 | 310 | 5590 | 24 |  | 
23 | CCN1CCN(Cc2ccc(NC(=O)c3cc(Cl)cc(NC(=O)c4ccccc4)c3)cc2C(F)(F)F)CC1 | 1.4 | 6070 | 15 | 493 | 361 | 7240 | 12 |  | 
